Where two headings read alike, the source gives them in different places.
Experiments:
male ddY mice [1] = assay: Murine 6 Hz convulsion models (6 Hz, 44 mA corneal stimulation); format: in vivo; settings: for ED50: Mus musculus, 25 min; for Therapeutic Index: TD50/ED50 (rotarod test-1 / 6 Hz convulsion model)
Description: (§1) With regard to the AMPA receptor inhibitory action of the compounds, AMPA-induced intraneuronal calcium entry-suppressing action was examined using a primary culture system of embryonic rat cerebral cortex neurons. […] AMPA inhibitor-induced central nervous system depressant action such as loss of coordination was evaluated using a rotarod performance test.
Immediately after the rotarod performance test-1 was completed, the cornea was stimulated by passing an electrical current (6 Hz, 44 mA, 0.2-millisecond pulse, for 3 seconds) from a copper electrode moistened with physiological saline, and the presence or absence of the development of a seizure was observed. The seizure was determined by the development of akinesia, jaw and forelimb clonus, whisker tremors, and Straub tail.
Further, for the purpose of evaluating the safety margin of each of the compounds of the present invention, the therapeutic index (TD50/ED50) was calculated by comparing the seizure inhibitory action (ED50) in the 6 Hz convulsion models and the neurotoxic action (TD50) in the rotarod performance test-1.

male ddY mice [2] = assay: Rotarod performance test-2; format: in vivo; settings: for Time of Fall: mice, oral at the ED50 dose of the 6 Hz model, 25 minutes after administration; for Ratio Relative to the Control Compound: time of fall relative to control compound
Description: Rotarod Performance Test-2
(§2) A rotarod (MK-660C from Muromachi Kikai Co., Ltd.) was used for the measurement. The rod (bar) was controlled to be gradually accelerated from its stationary state to a speed of 40 rotations/minute after 180 seconds. As the animals, 5 or 6-week-old male ddY mice (Japan SLC, Inc.) were used. On the day on which the test was performed, the mice were trained under the above-described measurement conditions, and mice that were able to ride on the rod for 1 minute or longer with good reproducibility were selected and subjected to the test.
As the control, only the medium was orally administered. After a lapse of 25 minutes from the oral administration of each compound, the mice were subjected to the rotarod performance test. Five or six mice were used for each compound group. For each compound, the time until the mice fell from the rotarod was measured.

male ddY mice [3] = assay: Rotarod performance test-1; format: in vivo; settings: oral, 25 minutes after administration, dose at which time of fall is reduced to 50% of medium control
Description: as §1
Rotarod Performance Test-1
as §2
Each of the compounds was dissolved in a medium (a solution prepared by adding DMSO to a 0.5% methylcellulose solution to a final concentration of 10%. As required, 0.5 to 5% of 1 mol/L hydrochloric acid and 5% Cremophor™ were added), and then orally administered to the mice in optimum four doses between 0.5 to 10 mg/kg. As the control, only the medium was orally administered. After a lapse of 25 minutes from the oral administration of each compound, the mice were subjected to the rotarod performance test. Five to twenty-five mice were used for each compound group.

AMPA receptor = assay: AMPA-induced intraneuronal calcium entry-suppressing action (primary culture of embryonic rat cerebral cortex neurons, Fura 2-AM); format: cell-based; settings: AMPA stimulation, intracellular calcium increase, read-out: IC50 for AMPA inhibition
Source text: The present inventors conducted the following tests, in order to confirm the effects of the compounds of the present invention. With regard to the AMPA receptor inhibitory action of the compounds, AMPA-induced intraneuronal calcium entry-suppressing action was examined using a primary culture system of embryonic rat cerebral cortex neurons. With regard to the anticonvulsant action of the compounds, 6 Hz (44 mA) stimulation-induced convulsions known as a treatment-resistant convulsion model were used. AMPA inhibitor-induced central nervous system depressant action such as loss of coordination was evaluated using a rotarod performance test.
AMPA-Induced Intraneuronal Calcium Entry-Suppressing Action
<Culture conditions> Whole fetuses were removed from the uteri of Wistar rats at embryonic day 18 (Charles River Japan) anesthetized with isoflurane. Whole brains were removed from the whole fetuses, and the cerebral cortex was separated in Leibovitz's L-15 medium or Hanks balanced salt solution containing 20% fetal bovine serum. The resulting material was treated with trypsin/DNase solution at 37° C. for 45 to 60 minutes. After the serum was added to stop the trypsin reaction, the resulting material was centrifuged at 1200 to 1500 rpm for 3 to 5 minutes. After the supernatant was removed, Neurobasal medium (containing 2% B-27 supplement and the like; hereinafter “Neurobasal medium”) was added, and the cells were uniformly dispersed by gently pipetting. The cell suspension was slightly stirred, and then filtered through a nylon mesh filter. Viable cells were counted using a hemocytometer, and diluted with Neurobasal medium to 8 to 10×10^5 cells/mL. The cells were seeded into 96 well plates at 100 μL per well and cultured in a CO2 incubator (5% CO2, 37° C.). The medium was replaced after 24 hours, and neurons cultured for 7 to 21 days were used.
On the day of the assay, the medium was removed and replaced with a calcium measurement solution containing 5 to 10 μmol/L of Fura 2-AM (140 mmol/L sodium chloride, 5 mmol/L potassium chloride, 2 mmol/L magnesium chloride, 3 mmol/L calcium chloride, 24 mmol/L D(+)-glucose, 10 mmol/L HEPES, 1 μmol/L MK-801, pH 7.4), and the cells were treated in a CO2 incubator (5% CO2, 37° C.) for 1 to 2 hours. The calcium measurement solution containing the Fura-2 AM solution was subsequently removed, and the neurons in each well were washed twice with the calcium measurement solution for each well, and then 50 μL of the calcium measurement solution was added to each well. Subsequently, 50 μL of a test compound or medium prepared at a concentration 3-fold higher than the final concentration was added, and the cells were pre-treated for about 15 minutes. The plates were subsequently placed on the Fluorescence Drug Screening System 6000 (Hamamatsu Photonics K.K.). The cells were stimulated by adding to each well 50 μL of an AMPA stimulating solution prepared to 3.3 μmol/L with the calcium measurement solution. Changes in calcium concentration were measured as the changes in fluorescence intensity at excitation wavelengths of 340 nm and 380 nm (measurement wavelength: 540 nm). The rate of change of the intracellular calcium concentration was calculated according to the following equation: Rate of increase of the intracellular calcium concentration (% control)=(Tpost−Tpre)/(Cpost−Cpre)×100
wherein Tpost: the proportion of fluorescence of sample wells after stimulation; Tpro: the proportion of fluorescence of sample wells before stimulation; Cpost: the proportion of fluorescence of control wells after stimulation; and Cpre: the proportion of fluorescence of control wells before stimulation.
The IC50 value of the test compound for AMPA inhibition was determined from the rates of increase of the intracellular calcium concentration at various concentrations.

[4] = mice, 6 Hz 44 mA stimulation-induced seizure, oral, after rotarod test-1 (25 minutes after administration), read-out: ED50

| SMILES | ED50 (male ddY mice [1]; [4]) | Therapeutic Index (male ddY mice [1]; mice) | Time of Fall (male ddY mice [2]; Table 3) | Ratio Relative to the Control Compound (male ddY mice [2]; Table 3) | TD50 (male ddY mice [3]) | IC50 (AMPA receptor) | ED50 (male ddY mice [1]; po) | Time of Fall (male ddY mice [2]; Table 4) | Ratio Relative to the Control Compound (male ddY mice [2]; Table 4) |
| --- | --- | --- | --- | --- | --- | --- | --- | --- | --- |
| O=c1c(-c2ccccc2F)cc2c(n1-c1ccccc1)COc1cccnc1-2 [Example 9, 9-(2-fluorophenyl)-7-phenyl-6H-pyrano[3,2-b:5,4-b′]dipyridin-8(7H)-one] | 3.38 mg/kg | 2.83 | 109.7 s | 9.0 | 9.55 mg/kg, p.o. | 50.9 nM | – | – | – |
| N#Cc1ncccc1-c1cc2c(n(-c3ccccc3)c1=O)COc1cc(F)cnc1-2 [Example 13, 3-(3-fluoro-8-oxo-7-phenyl-7,8-dihydro-6H-pyrano[3,2-b:5,4-b′]dipyridin-9-yl)picolinonitrile] | – | 1.73 | 84.8 s | 7.0 | 3.89 mg/kg, p.o. | 67.5 nM | 2.25 mg/kg | – | – |
| O=c1c(-c2c(F)c(F)cc(F)c2F)cc2c(n1-c1cccnc1)COc1cccnc1-2 [Example 6, 7-(pyridin-3-yl)-9-(2,3,5,6-tetrafluorophenyl)-6H-pyrano[3,2-b:5,4-b′]dipyridin-8(7H)-one] | – | 1.55 | 68.0 s | 5.6 | 4.44 mg/kg, p.o. | 34.6 nM | 2.86 mg/kg | – | – |
| N#Cc1c(F)ccc(F)c1-c1cc2c(n(-c3cccnc3)c1=O)COc1cccnc1-2 [Example 19, 3,6-difluoro-2-(8-oxo-7-(pyridin-3-yl)-7,8-dihydro-6H-pyrano[3,2-b:5,4-b′]dipyridin-9-yl)benzonitrile] | – | 1.63 | – | – | 3.25 mg/kg, p.o. | 23.4 nM | 2 mg/kg | 121.7 s | 8.5 |
| O=c1c(-c2cccc(F)c2Cl)cc2c(n1-c1cncc(F)c1)COc1cccnc1-2 [Example 17, 9-(2-chloro-3-fluorophenyl)-7-(5-fluoropyridin-3-yl)-6H-pyrano[3,2-b:5,4-b′]dipyridin-8(7H)-one] | – | 2.14 | – | – | 4.27 mg/kg, p.o. | 17.7 nM | 2 mg/kg | 147.0 s | 10.3 |
| Cc1c(F)cccc1-c1cc2c(n(-c3cccnc3)c1=O)COc1cccnc1-2 [Example 22, 9-(3-fluoro-2-methylphenyl)-7-(pyridin-3-yl)-6H-pyrano[3,2-b:5,4-b′]dipyridin-8(7H)-one] | 3.23 mg/kg | 1.91 | – | – | 6.19 mg/kg, p.o. | 53.3 nM | – | 102.8 s | 7.2 |
| N#Cc1ncccc1-c1cc2c(n(-c3ccsc3)c1=O)COc1cccnc1-2 [Example 7, 3-(8-oxo-7-(thiophen-3-yl)-7,8-dihydro-6H-pyrano[3,2-b:5,4-b′]dipyridin-9-yl)picolinonitrile] | – | 1.75 | 71.7 s | 5.9 | 1.70 mg/kg, p.o. | 15.5 nM | 0.97 mg/kg | – | – |
| N#Cc1c(F)cccc1-c1cc2c(n(-c3cncc(F)c3)c1=O)COc1cccnc1-2 [Example 15, 2-fluoro-6-(7-(5-fluoropyridin-3-yl)-8-oxo-7,8-dihydro-6H-pyrano[3,2-b:5,4-b′]dipyridin-9-yl)benzonitrile] | – | 1.89 | – | – | 2.67 mg/kg, p.o. | 8.2 nM | 1.41 mg/kg | 100.0 s | 7.0 |
| N#Cc1ncccc1-c1cc2c(n(-c3ccc(F)cc3)c1=O)COc1cccnc1-2 [Example 11, 3-(7-(4-fluorophenyl)-8-oxo-7,8-dihydro-6H-pyrano[3,2-b:5,4-b′]dipyridin-9-yl)picolinonitrile] | 1.69 mg/kg | 2.99 | 114.7 s | 9.4 | 5.05 mg/kg, p.o. | 26.3 nM | – | – | – |
| COc1cncc(-n2c3c(cc(-c4cccc(F)c4C#N)c2=O)-c2ncccc2OC3)c1 [Example 2, 2-fluoro-6-(7-(5-methoxypyridin-3-yl)-8-oxo-7,8-dihydro-6H-pyrano[3,2-b:5,4-b′]dipyridin-9-yl)benzonitrile] | – | 2.36 | 148.0 s | 12.1 | 4.50 mg/kg, p.o. | 16 nM | 1.91 mg/kg | – | – |
| N#Cc1nccnc1-c1cc2c(n(-c3ccsc3)c1=O)COc1cccnc1-2 [Example 8, 3-(8-oxo-7-(thiophen-3-yl)-7,8-dihydro-6H-pyrano[3,2-b:5,4-b′]dipyridin-9-yl)pyrazine-2-carbonitrile] | 4.85 mg/kg | >1.65 | 65.8 s | 5.4 | >8 mg/kg, p.o. | 70.1 nM | – | – | – |
